Test results taken from patent US10935546B2, “Fluorescent AMP-kinase biosensors” (Universite Grenoble Alpes, priority 2015, dated 2021).

Columns and labels:
AMPfret 2.1 = biological target: T1, AMPfret 2.1 (UniProt O43741+P80385+Q09137); assay: FRET assay with purified AMPfret 2.1 sensor (fluorimeter); type: binding, rat α2 and γ1, human β2; conditions: 50 μM A-769662 or 500 μM Metformin, compared with 20 μM AMP (FIG. 6)
T1 construct: decaHis tag with TEV site (N); made in house; host or cells: E. coli BL21 (DE3) Star
Protocol: The FRET ratio was calculated from fluorescence emission spectra excited at 430 nm. Data points correspond to mean±SEM (n>3).
Structure and names of the molecules are given below the bars.
(§1) FRET assay: FRET signal variation in presence of different compounds (nucleotides, chemicals, ions) was measured using a fluorimeter (Photon Technology International). AMPfret constructs (20 pmol) were incubated in a quartz cuvette in a final volume of 150 μL (spectro buffer: 50 mM Tris pH8, 200 mM NaCl, 5 mM MgCl2, 2 mM β-mercaptoethanol). Effects of nucleotides and others compounds (previously prepared in the spectro buffer) on the FRET ratio given by AMPfret sensor was determined by comparing FRET ratio (peak value at 527 nm/peak value at 476 nm) in presence or absence of the compounds. Excitation wavelength was set to 430 nm, and emission spectra were recorded from 450 to 600 nm with an integration time of 0.2 s. Mg^2+ effect on FRET was investigated in spectro buffer without Mg^2+.

[1] = system: AMPfret 2.1 in 3T3-L1 or HeLa cells; conditions: 1 mM AICAR
Protocol: HeLa cells transfected with AMPFret 2.1 were exposed for 60 min to 1 mM AICAR. […] (b) Time course of the FRET signal. […] (c) AMPK activation at t=0 min and t=60 min. Phosphorylation of the AMPK substrate ACC as determined by immunoblotting (lower panel) and quantification of the resulting P-ACC/total ACC ratio (upper panel). P-ACC/total ACC ratios at t=0 and t=60 min are respectively represented as a white dotted bar and black dotted bar. Data correspond to mean±SEM (n=3).
For cellular ex vivo experiments, subunits of the optimized construct AMPfret 2.1 were cloned in the vectors (pACEMam2, pMDS and pMDK) of the MultiMam expression system. Created plasmids were fused via their Lox-P site to yield to a single mammalian expression vector coding for the sensor AMPFret 2.1 according to well-known techniques to the skilled man in the art.
3T3-L1 and HeLa cells were cultivated in glucose containing DMEM (4.5 g/L) supplemented with SVF, glutamine, penicillin and streptomycin. Once cells reached around 80% confluence, medium was replaced by OptiMEM (Lifetechnologies) and AMPfret 2.1 coding plasmid was transfected using Lipofectamine2000 (Lifetechnologies). After 5 h, OptiMEM was exchanged by complete DMEM and cells grew for >36 h until their observations under the confocal microscope.
LabTek plates were placed in an incubation chamber in which the temperature and O2 concentration were maintained at 37° C. and 21%, respectively. Without moving the Labtek, 200 μL medium was replaced by the same volume of complete medium containing 2 mM AICAR (1 mM final). Excitation wavelength was set to 458 nm and emission spectra showing FRET signal were monitored through A scans from 463 nm to 600 nm every 15 min. ROI (region of interest) were drawn in order to cover entire cells. FRET ratio variations were calculated from those measured emission spectra.
AMPfret 2.1 was excited using a 458 nm laser and emission spectra showing FRET signal were monitored through A scans from 463 nm to 600 nm every 15 min.

[2] = FRET signal variation of AMPfret constructs upon AMP/ADP binding; conditions: 3 mM ATP vs 20 μM AMP (FIG. 2)
Description: Top: Schema showing structural organization of the sensors. CFP and YFP are respectively represented as hatched- and dotted-circles. (a) Fluorescence emission spectra of AMPfret constructs excited at 430 nm. […] Data correspond to mean±SEM (AMPfret A: n=7; AMPfret C: n=10).
Second generation of AMPfret constructs 1.1 and 2.1. based on constructs AMPfret C and A, respectively. Top: Schema showing structural organization of the sensors. Both optimized constructs contain mseCFPΔ11/cpVenus as GFP-derived fluorescent couple instead of CFP/YFP. mseCFPΔ11 and cpVenus are respectively represented as hatched- and checkered circles. […] (a) Fluorescence emission spectra of AMPfret constructs excited at 430 nm. […] Data correspond to mean±SEM (AMPfret 1.0: n=10; AMPfret 1.1: n=7); *=p<0.001 (significance assessed by a Student-Newman-Keuls test).
as §1, with “AMPfret constructs (20 pmol) were incubated in a quartz cuvette in a final volume of 150 μL (spectro buffer: 50 mM Tris pH8, 200 mM NaCl, 5 mM MgCl2, 2 mM β-mercaptoethanol).” left out, “Mg^2+ effect on FRET was investigated in spectro buffer without Mg^2+.” left out

T1 sequence (Q09137 1-550): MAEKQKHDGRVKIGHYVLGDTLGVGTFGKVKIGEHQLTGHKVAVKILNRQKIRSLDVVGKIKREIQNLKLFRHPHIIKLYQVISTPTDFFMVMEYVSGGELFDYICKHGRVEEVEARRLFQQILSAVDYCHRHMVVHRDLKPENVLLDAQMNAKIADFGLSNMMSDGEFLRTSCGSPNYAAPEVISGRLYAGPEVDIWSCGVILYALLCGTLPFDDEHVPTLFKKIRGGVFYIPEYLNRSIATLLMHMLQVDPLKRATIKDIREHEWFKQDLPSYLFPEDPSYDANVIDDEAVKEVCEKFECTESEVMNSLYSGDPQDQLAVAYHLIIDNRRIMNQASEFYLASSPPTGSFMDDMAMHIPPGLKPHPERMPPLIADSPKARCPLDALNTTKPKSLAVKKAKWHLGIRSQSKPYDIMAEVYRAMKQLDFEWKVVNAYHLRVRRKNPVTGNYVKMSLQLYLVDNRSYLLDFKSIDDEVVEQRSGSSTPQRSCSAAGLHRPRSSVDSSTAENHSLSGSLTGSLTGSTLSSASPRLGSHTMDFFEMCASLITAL
T1 sequence (O43741 1-269): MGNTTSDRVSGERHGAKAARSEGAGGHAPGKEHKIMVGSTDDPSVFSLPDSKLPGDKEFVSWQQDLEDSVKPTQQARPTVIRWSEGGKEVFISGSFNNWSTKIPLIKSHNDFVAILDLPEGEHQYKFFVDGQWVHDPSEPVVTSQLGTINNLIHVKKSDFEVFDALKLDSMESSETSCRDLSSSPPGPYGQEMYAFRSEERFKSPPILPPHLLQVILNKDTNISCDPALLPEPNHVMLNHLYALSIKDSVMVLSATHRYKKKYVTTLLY
T1 sequence (P80385 whole entry): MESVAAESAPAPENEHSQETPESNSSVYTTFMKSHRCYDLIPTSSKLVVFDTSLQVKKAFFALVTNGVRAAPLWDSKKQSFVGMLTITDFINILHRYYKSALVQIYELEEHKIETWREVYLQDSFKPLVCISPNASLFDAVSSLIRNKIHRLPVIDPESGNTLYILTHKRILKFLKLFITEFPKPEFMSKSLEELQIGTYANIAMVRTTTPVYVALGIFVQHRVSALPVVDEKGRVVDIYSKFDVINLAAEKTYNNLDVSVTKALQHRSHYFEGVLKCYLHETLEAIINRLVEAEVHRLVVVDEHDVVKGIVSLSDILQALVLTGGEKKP

| FRET signal induced in AMPfret in vitro (AMPfret 2.1) | difference in FRET signal depending on the presence of AMP or ADP [2] [%] | Compound | further results |
| --- | --- | --- | --- |
| did not induce any FRET variation | – | CN(C)C(=N)N=C(N)N [Metformin] | – |
| – | ~10 | AMPfret C: AMPK heterotrimer: rat alpha2-CFP (SEQ ID NO:5), human beta2 (SEQ ID NO:9), rat gamma1-YFP (SEQ ID NO:21) | – |

Second part, the compound before the results:

| Compound | FRET signal induced in AMPfret in vitro (AMPfret 2.1) | difference in FRET signal depending on the presence of AMP or ADP [2] [%] | further results |
| --- | --- | --- | --- |
| N#Cc1c(O)c2c(-c3ccc(-c4ccccc4O)cc3)csc2[nH]c1=O [A-769662] | induces a FRET signal comparable to AMP | – | – |
| NC(=O)c1ncn([C@@H]2O[C@H](CO)[C@@H](O)[C@H]2O)c1N [AICAR, 5′-Aminoimidazole-4-carboxamide ribonucleoside] | – | – | time to maximal effect on FRET signal [1]: about 30 minutes; AMPfret 2.1 FRET signal upon AICAR addition ([1]; 60 min, read every 15 min, HeLa and 3T3-L1 cells): increased with time; FRET response after 15 min of treatment ([1]; 15 min): More than half-maximal response; cpVenus peak (527 nm) in fluorescence emission spectra over time ([1]; HeLa cells transfected with AMPFret 2.1, 0, 15, 30 min): increase of cpVenus peak |
| AMPfret A: AMPK heterotrimer: rat alpha2-CFP (SEQ ID NO:5), human beta2-YFP (SEQ ID NO:11), rat gamma1 (SEQ ID NO:15) | – | ~10 | – |
